Experimental data reported in ChEMBL document CHEMBL1138343 (J Med Chem, 2007).

Assays:
Glucocorticoid receptor [1] = biological target: T1, Glucocorticoid receptor (Homo sapiens, UniProt P04150); assay: Agonist activity at glucocorticoid receptor in human A549 cells by MMTV transactivation assay; assay type: functional, cell-based; conditions: for pEC50: a549
T1 sequence (P04150 whole entry): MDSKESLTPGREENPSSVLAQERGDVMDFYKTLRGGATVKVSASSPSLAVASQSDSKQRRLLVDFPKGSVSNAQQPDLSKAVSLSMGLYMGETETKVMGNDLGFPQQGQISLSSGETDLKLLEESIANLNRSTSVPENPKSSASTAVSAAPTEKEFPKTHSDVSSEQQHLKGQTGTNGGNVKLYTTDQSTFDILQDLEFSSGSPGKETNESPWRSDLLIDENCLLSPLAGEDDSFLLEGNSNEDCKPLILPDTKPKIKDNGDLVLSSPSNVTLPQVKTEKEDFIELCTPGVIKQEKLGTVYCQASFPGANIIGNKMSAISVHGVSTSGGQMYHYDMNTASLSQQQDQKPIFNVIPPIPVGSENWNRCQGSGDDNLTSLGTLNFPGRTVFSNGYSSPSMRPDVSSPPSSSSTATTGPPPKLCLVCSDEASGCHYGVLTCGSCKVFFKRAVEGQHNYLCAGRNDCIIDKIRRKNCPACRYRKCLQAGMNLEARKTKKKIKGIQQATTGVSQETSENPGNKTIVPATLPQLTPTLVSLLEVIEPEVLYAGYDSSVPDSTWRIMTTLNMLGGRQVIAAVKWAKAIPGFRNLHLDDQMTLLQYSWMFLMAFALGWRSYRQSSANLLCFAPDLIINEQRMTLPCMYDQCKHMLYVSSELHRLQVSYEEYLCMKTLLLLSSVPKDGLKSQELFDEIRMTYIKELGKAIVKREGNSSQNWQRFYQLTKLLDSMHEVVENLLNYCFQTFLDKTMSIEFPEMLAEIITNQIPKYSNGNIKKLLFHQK

Glucocorticoid receptor [2] = biological target: T1, Glucocorticoid receptor
Glucocorticoid receptor [3] = biological target: T1, Glucocorticoid receptor; remark: listed apart in the source
Description: Agonist activity at glucocorticoid receptor in human A549 cells by NF-kappaB transrepression assay

Glucocorticoid receptor [4] = biological target: T1, Glucocorticoid receptor; remark: listed apart in the source

| EC50 (Glucocorticoid receptor [1]) | IC50 (Glucocorticoid receptor [2]) | IC50 (Glucocorticoid receptor [3]) | IC50 (Glucocorticoid receptor [4]) | pEC50 (Glucocorticoid receptor [1]) | SMILES |
| --- | --- | --- | --- | --- | --- |
| 17.8 nM | 8.13 nM | 2.04 nM | 53.7 nM | – | Cc1noc(=O)c2ccc(NC(=O)C(O)(CC3(C4CCCC4)CCCc4ccccc43)C(F)(F)F)cc12 (stereo not given) |
| 41.7 nM | 22.9 nM | 42.7 nM | 447 nM | – | CC1(CC(O)(Cc2cc3ccccc3[nH]2)C(F)(F)F)CCCc2ccccc21 (stereo not given) |
| 51.3 nM | 28.2 nM | 30.2 nM | – | – | CCC1(CC(O)(Cc2cc(Cl)nc3ccccc23)C(F)(F)F)CCCc2ccccc21 (stereo not given) |
| > 10000 nM | 148 nM | 741 nM | – | – | OC(Cc1ccnc2ccccc12)(CC1(C2CCCC2)CCCc2ccccc21)C(F)(F)F (stereo not given) |
| > 1000 nM | 7.59 nM | 6.61 nM | 57.5 nM | – | CCC1(CC(O)(Cc2[nH]c3ccccc3c2C#N)C(F)(F)F)CCCc2ccccc21 (stereo not given) |
| 13.5 nM | 6.31 nM | 3.09 nM | – | – | CC1(CC(O)(CNc2cccc3ncccc23)C(F)(F)F)CCCc2ccccc21 (stereo not given) |
| > 1000 nM | 14.1 nM | 8.13 nM | – | – | CCC1(CC(O)(Cn2ccc(=O)c3ccccc32)C(F)(F)F)CCCc2ccccc21 (stereo not given) |
| > 1000 nM | 11.2 nM | 12.3 nM | – | – | CCC1(CC(O)(CNc2cccc3ncccc23)C(F)(F)F)CCCc2ccccc21 (stereo not given) |
| – | 14.1 nM | 49 nM | 224 nM | < 6 | CC1(CC(O)(Cn2ccc(=O)c3ccccc32)C(F)(F)F)CCCc2ccccc21 (stereo in doubt; 17D1) |
| > 1000 nM | 34.7 nM | > 1000 nM | 708 nM | – | CC1(CC(O)(Cn2ccc(=O)c3ccccc32)C(F)(F)F)CCCc2ccccc21 (stereo in doubt; 17D2) |
| 64.6 nM | 31.6 nM | 57.5 nM | – | – | CCC1(CC(O)(Cc2cc3ccccc3[nH]2)C(F)(F)F)CCCc2ccccc21 (stereo in doubt; 20D1) |
| 61.7 nM | 14.1 nM | 11.2 nM | 245 nM | – | CCC1(CC(O)(Cc2cc3ccccc3[nH]2)C(F)(F)F)CCCc2ccccc21 (stereo in doubt; 20D1E1) |
| – | 1260 nM | > 1000 nM | – | – | CCC1(CC(O)(Cc2cc3ccccc3[nH]2)C(F)(F)F)CCCc2ccccc21 (stereo in doubt; 20D1E2) |
| 58.9 nM | 89.1 nM | 7.24 nM | – | – | CCC1(CC(O)(Cc2cc3c(C)cc(C#N)cc3[nH]2)C(F)(F)F)CCCc2ccccc21 (stereo in doubt; 21D1) |
| 51.3 nM | 38.9 nM | 3.8 nM | – | – | CCC1(CC(O)(Cc2cc3c(C)cc(C#N)cc3[nH]2)C(F)(F)F)CCCc2ccccc21 (stereo in doubt; 21D1E2) |
| – | 28.2 nM | 20 nM | – | < 6 | CCC1(CC(O)(Cc2cc3ccncc3[nH]2)C(F)(F)F)CCCc2ccccc21 (stereo in doubt; 23D1) |

| EC50 (Glucocorticoid receptor [1]) | IC50 (Glucocorticoid receptor [2]) | IC50 (Glucocorticoid receptor [3]) | IC50 (Glucocorticoid receptor [4]) | pEC50 (Glucocorticoid receptor [1]) | SMILES |
| --- | --- | --- | --- | --- | --- |
| > 1000 nM | 8.91 nM | 8.91 nM | 741 nM | – | CCC1(CC(O)(Cc2cc3ccncc3[nH]2)C(F)(F)F)CCCc2ccccc21 (stereo in doubt; 23D1E1) |
| 38 nM | 15.1 nM | 4.9 nM | 5010 nM | – | CCC1(CC(O)(Cc2ccnc3ccccc23)C(F)(F)F)CCCc2ccccc21 (stereo in doubt; 33D1) |
| > 1000 nM | 10 nM | 1.58 nM | – | – | CCC1(CC(O)(Cc2ccnc3ccccc23)C(F)(F)F)CCCc2ccccc21 (stereo in doubt; 33D1E1) |
| > 10000 nM | 33.1 nM | 275 nM | – | – | CCC1(CC(O)(Cc2ccnc3ccccc23)C(F)(F)F)CCCc2ccccc21 (stereo in doubt; 33D2) |
| 12.9 nM | 15.1 nM | 7.08 nM | – | – | CC1(CC(O)(Cc2ccnc3ccccc23)C(F)(F)F)CCCc2ccccc21 (stereo in doubt; 41D1) |
| > 10000 nM | 24 nM | > 10000 nM | – | – | CC1(CC(O)(Cc2ccnc3ccccc23)C(F)(F)F)CCCc2ccccc21 (stereo in doubt; 41D2) |
| 13.2 nM | 14.8 nM | 2.4 nM | – | – | CCC1(CC(O)(CNc2cccc3nc(C)ccc23)C(F)(F)F)CCCc2ccccc21 (stereo in doubt; 45D1) |
| 11 nM | 14.8 nM | 1.95 nM | – | – | CCC1(CC(O)(CNc2cccc3nc(C)ccc23)C(F)(F)F)CCCc2ccccc21 (stereo in doubt; 45D1E1) |
| 162 nM | 18.6 nM | 49 nM | – | – | CCC1(CC(O)(CNc2cccc3nc(C)ccc23)C(F)(F)F)CCCc2ccccc21 (stereo in doubt; 45D2) |
| 288 nM | 17.4 nM | 45.7 nM | – | – | CCC1(CC(O)(CNc2cccc3nc(C)ccc23)C(F)(F)F)CCCc2ccccc21 (stereo in doubt; 45D2E1) |
| 32.4 nM | 21.4 nM | 1.26 nM | – | – | CCC1(CC(O)(CNc2cccc3cnccc23)C(F)(F)F)CCCc2ccccc21 (stereo in doubt; 49D1) |
| > 1000 nM | 10 nM | 2.19 nM | – | – | CCC1(CC(O)(CNc2cccc3cnccc23)C(F)(F)F)CCCc2ccccc21 (stereo in doubt; 49D1E2) |
| 8.32 nM | 8.71 nM | 1.17 nM | 102 nM | – | CC1(CC(O)(CNc2cccc3cnccc23)C(F)(F)F)CCCc2ccccc21 (stereo in doubt; 54D1E2) |
| 257 nM | 74.1 nM | 15.1 nM | – | – | CC1(CC(O)(CNc2cccc3cnccc23)C(F)(F)F)CCCc2ccccc21 (stereo in doubt; 54D2E1) |
| 9.55 nM | 5.01 nM | 0.501 nM | 77.6 nM | – | Cc1ccc2c(NCC(O)(CC3(C)CCCc4ccccc43)C(F)(F)F)cccc2n1 (stereo in doubt; 55D1E1) |
| 72.4 nM | 9.12 nM | 9.12 nM | – | – | Cc1ccc2c(NCC(O)(CC3(C)CCCc4ccccc43)C(F)(F)F)cccc2n1 (stereo in doubt; 55D2E1) |
